Assays:
liver ferritin [1] = test: Analysis of the ferritin from rat livers (quantitative determination of ferritin protein and its iron content); assay type: in vivo; details: for Ratio of iron to protein: rat liver ferritin, two successive daily doses corresponding to 52.5 mg Fe/kg; for Ratio of iron to protein / Ferritin-iron / Ferritin-protein: average values from 6 animals; for Ferritin-iron / Ferritin-protein: two successive daily doses corresponding to 52.5 mg Fe/kg (table; text 52.2), 24 hours after 2nd administration
Method: 24 hours after the 2nd administration the animals were killed. […] For this, ferritin is isolated from the liver by thermal denaturation, ammonium sulfate fractionation and gel filtration, and the protein is determined by amino acid analysis and the iron content by atom absorption.

liver ferritin [2] = test: Histological comparison test of liver ferritin (Berlin-blue reaction); assay type: in vivo; details: 6 male rats and 6 male mice; 2 doses corresponding to 52.2 mg Fe/kg; 24 hours after 2nd administration
Method: After oral administration, sideropenia resulting from by-passing the normal regulating mechanism in the intestine for ionic iron, is quickly compensated. Thus, the results of an iron-deficient diet for rats and mice, such as reduced body weight, decrease of hemoglobin, of the hematocrit, of the serum iron and of the number of erythrocytes, is fully compensated by the administration once of a dose of one of the compounds according to the invention corresponding to 2 mg of iron per animal. The compounds according to the invention are resorbed well orally, the excretion of unchanged substance in urine usually being less than 1%. The compounds are distinguished by a distinct nontoxicity, the LD50 of 4-ferrocenoyl-cyclohexene thus amounting to 2000 mg/kg in mice and 3,000 mg/kg in rats. As can be shown by biochemical determination of the ferritin protein and its degree of iron saturation, the compounds are completely metabolised in the liver, that is, the iron is released and incorporated in the storage form that can be used to form hemoglobin, that is in liver ferritin, and in the case of an excess of added substance, in ferritin and in hemosiderin. These discoveries are supported by histological comparison tests, in which the increase of liver ferritin is recognisable in a Berlin-blue reaction in the form of a uniform blue shading of the cytoplasma of the liver cells, and any hemosiderin that may have formed is recognisable in the form of fine blue grains.
The compounds were administered to 6 male rats and 6 male mice on two successive days in individual doses corresponding to an iron content of 52.2 mg Fe per kg of animal. 24 hours after the 2nd administration the animals were killed. […] The quantitative determination of the ferritin protein and its iron content (table) confirm these findings. For this, ferritin is isolated from the liver by thermal denaturation, ammonium sulfate fractionation and gel filtration, and the protein is determined by amino acid analysis and the iron content by atom absorption.

[3] = test system: ability to utilize the iron; details: among 2a-d, according to details in the literature; cited from earlier work
mice = test: Acute toxicity (LD50) in mice
rats = test: Acute toxicity (LD50) in rats

Compound	Ratio of iron to protein (liver ferritin [1])	Ferritin-iron (liver ferritin [1]; rat liver) [μg/g tissue]	Ferritin-protein (liver ferritin [1]; rat liver) [μg/g tissue]	histological increase of the liver ferritin (liver ferritin [2])	ability to utilize the iron [3]	LD50 (mice) [mg/kg]	hemosiderin particles, histologically (liver ferritin [2])	ferritin protein and its iron content in comparison with the known compounds 2a-d (liver ferritin [1]; rat liver, after administration, from the table)	LD50 (rats)
1,1'-di-(3,5,5-trimethyl-hexanoyl)-ferrocene [Example 2b]	0.26	148	567	–	–	–	–	–	–
1,1'-di-hexahydrobenzoyl ferrocene [Example 2c]	0.42	94	224	do not cause any histologically recognisable increase of the liver ferritin	–	–	–	–	–
1,1'-di-neopentyl ferrocene [Example 2d]	0.38	61	130	do not cause any histologically recognisable increase of the liver ferritin	the best, especially regarding its ability to utilize the iron	–	–	–	–
O=C([c-]1cccc1)C1CC=CCC1.[Fe+2].c1cc[cH-]c1 (centres unmarked) [Example 1, 4-Ferrocenoyl-cyclohexene]	1.19	1133	950	in comparison with 2a and 2b exhibits a substantially greater increase of the liver ferritin	–	2000	individual hemosiderin particles are observed	clearly increased more markedly	3,000 mg/kg
O=C([c-]1cccc1)C1CCCCC1.[Fe+2].c1cc[cH-]c1 [Example 2a, hexahydrobenzoyl ferrocene]	0.43	209	475	–	–	–	–	–	–

From patent publication US4141991A, “Ferrocene derivatives” (Hoechst Aktiengesellschaft, priority 1976, dated 1979)
